This note sets out measurements from patent publication US11001590B2, “Pyrazolopyrimidine derivatives” (BAYER ANIMAL HEALTH GMBH, priority 2016, dated 2021).

As a reminder, the EC50 is the concentration needed to bring the measured effect to its halfway point. One may read the chromatographic logP as lipophilicity estimated from chromatographic retention. Lower therefore signals a more hydrophilic compound.

Data set [1] concerns Dirofilaria immitis microfilariae. As to the kind of experiment: In vitro assay 3: Dirofilaria immitis microfilariae (DIROIM L1), motility. Conditions: 72 h, reduction of motility vs negative control, 72 h incubation.
A short description of data set [2]: log P by HPLC on reversed phase columns (Method L0; [a] acidic, [b] neutral range).
Experimental: Calibration was done with straight-chain alkan-2-ones (with 3 to 16 carbon atoms) with known log P values (measurement of log P values using retention times with linear interpolation between successive alkanones). Lambda-max-values were determined using UV-spectra from 200 nm to 400 nm and the peak values of the chromatographic signals.
Data set [3] concerns the target C. elegans Slo-1a (Caenorhabditis elegans, UniProt Q95V25). Put plainly: In vitro assay 1: C. elegans Slo-1a, action at a recombinant C. elegans CHO cell line (membrane potential measurement).

C. elegans Slo-1a, sequence (Q95V25 whole entry): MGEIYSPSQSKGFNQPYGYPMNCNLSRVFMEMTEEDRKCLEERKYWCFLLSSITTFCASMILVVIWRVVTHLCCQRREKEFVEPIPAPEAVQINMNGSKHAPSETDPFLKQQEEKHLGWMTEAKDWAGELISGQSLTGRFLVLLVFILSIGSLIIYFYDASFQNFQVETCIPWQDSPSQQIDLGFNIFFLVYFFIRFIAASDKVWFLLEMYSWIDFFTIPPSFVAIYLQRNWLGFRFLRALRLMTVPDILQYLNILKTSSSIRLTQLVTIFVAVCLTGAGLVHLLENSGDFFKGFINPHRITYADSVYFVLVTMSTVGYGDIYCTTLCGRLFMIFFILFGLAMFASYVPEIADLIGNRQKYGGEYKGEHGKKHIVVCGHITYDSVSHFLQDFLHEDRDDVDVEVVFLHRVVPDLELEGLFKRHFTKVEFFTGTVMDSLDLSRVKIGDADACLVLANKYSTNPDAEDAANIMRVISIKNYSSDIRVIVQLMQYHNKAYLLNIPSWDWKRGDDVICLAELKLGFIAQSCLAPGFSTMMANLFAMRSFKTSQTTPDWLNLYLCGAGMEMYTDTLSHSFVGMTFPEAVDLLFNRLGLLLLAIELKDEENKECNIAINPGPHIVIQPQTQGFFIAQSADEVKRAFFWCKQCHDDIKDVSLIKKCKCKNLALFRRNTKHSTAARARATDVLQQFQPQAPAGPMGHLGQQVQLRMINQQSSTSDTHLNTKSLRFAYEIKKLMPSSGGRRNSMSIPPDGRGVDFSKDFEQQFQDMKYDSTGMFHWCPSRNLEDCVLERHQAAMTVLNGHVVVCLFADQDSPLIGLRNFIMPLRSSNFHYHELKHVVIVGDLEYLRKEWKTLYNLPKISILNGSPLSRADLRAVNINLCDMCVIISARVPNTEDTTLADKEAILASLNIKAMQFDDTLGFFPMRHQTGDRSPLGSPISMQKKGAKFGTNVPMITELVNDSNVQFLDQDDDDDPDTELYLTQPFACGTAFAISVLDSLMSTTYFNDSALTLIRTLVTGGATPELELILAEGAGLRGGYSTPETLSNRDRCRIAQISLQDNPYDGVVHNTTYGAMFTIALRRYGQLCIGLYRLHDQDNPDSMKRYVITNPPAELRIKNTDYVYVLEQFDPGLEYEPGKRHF

On to `Cc1nn2c(C(C)C)c(C(=O)N[C@H]3CCOc4ccccc43)cnc2c1-c1ccc2c(c1)OCO2` [Example 239], for which the figures for the EC50 in data set [1] and in data set [3] were under 10 µg/mL and 31.6 nM, respectively. Besides, the chromatographic logP in data set [2] amounted to 4.08.
For `Cc1nn2c(C(C)C)c(C(=O)N[C@H]3CCOc4ccccc43)cnc2c1-c1ccc2cc[nH]c2c1` [Example 243], in that order: under 10 µg/mL, 631 nM and 3.76.
For `Cc1nn2c(C(C)C)c(C(=O)N[C@H]3CCOc4ccccc43)cnc2c1-c1ccc2c(c1F)OCO2` [Example 245], in that order: under 1 µg/mL, 20 nM and 4.18.
Consider `COc1cccc(-c2c(C)nn3c(C(C)C)c(C(=O)N[C@H]4CCOc5ccccc54)cnc23)c1Cl` [Example 247], for which the figures for the EC50 in data set [1] and in data set [3] were under 1 µg/mL and 10 nM, respectively. The chromatographic logP in data set [2] was determined as 4.19.
With `Cc1nn2c(C(C)C)c(C(=O)N[C@H]3CCOc4ccccc43)cnc2c1-c1ccc2c(c1)NCC2` [Example 248], the EC50 in data set [1] was under 10 µg/mL; in data set [3], 50.1 nM. In addition, the chromatographic logP in data set [2] stood at 2.2.
In the same order, the values of `COc1cc(-c2c(C)nn3c(C(C)C)c(C(=O)N[C@H]4CCOc5ccccc54)cnc23)cc(OC)c1OC` [Example 249] are under 1 µg/mL, 158 nM and 3.94.
In the same order, the values of `Cc1nn2c(C(C)C)c(C(=O)N[C@H]3CCOc4ccccc43)cnc2c1-c1ccc2c(c1)OC(F)(F)O2` [Example 251] are under 0.1 µg/mL, 3.16 nM and 5.03.
For `Cc1nn2c(C(C)C)c(C(=O)N[C@H]3CCOc4ccccc43)cnc2c1-c1ccc2c(c1)CC(=O)N2` [Example 252], the EC50 is under 10 µg/mL in data set [1] and 1260 nM in data set [3]. The compound further registered a chromatographic logP in data set [2] of 2.87.
Take `Cc1nn2c(C(C)C)c(C(=O)N[C@H]3CCOc4ccccc43)cnc2c1-c1cc(O)c(F)c(F)c1` [Example 259]: the figures for the EC50 in data set [1] and in data set [3] were under 1 µg/mL and 15.8 nM, respectively. Also, the chromatographic logP in data set [2] worked out at 3.61.
`Cc1nn2c(C(C)C)c(C(=O)N[C@H]3CCOc4ccccc43)cnc2c1-c1ccccc1C#N` [Example 264]: the EC50 in data set [1] is under 1 µg/mL; in data set [3] it was 25.1 nM. This compound also had a chromatographic logP in data set [2] of 3.68.
In the case of `Cc1nn2c(C(C)C)c(C(=O)N[C@H]3CCOc4ccccc43)cnc2c1-c1cccc2c1OCO2` [Example 266], the EC50 in data set [1] was under 1 µg/mL; in data set [3] it was 2 nM. Also, the chromatographic logP in data set [2] was 4.02.
As to `Cc1nc2c(-c3cccc(Cl)c3Cl)c(C)nn2c(C)c1C(=O)N[C@H]1CCOc2ccccc21` [Example 267], the EC50 was under 10 µg/mL in data set [1] and 158 nM in data set [3]. For the same compound, the chromatographic logP in data set [2] was 3.86.
As for `Cc1nn2c(C(C)C)c(C(=O)N[C@H]3CCc4ccccc43)cnc2c1-c1cccc(S(C)(=O)=O)c1` [Example 288], the EC50 in data set [1] is under 10 µg/mL; in data set [3] it was 200 nM. This compound gave a chromatographic logP in data set [2] of 3.57.
In the case of `Cc1nn2c(C(C)C)c(C(=O)N[C@H]3CCc4ccccc43)cnc2c1-c1cccnc1` [Example 297], the EC50 is under 10 µg/mL in data set [1] and 1260 nM in data set [3]. Further, in data set [2], the chromatographic logP was determined as 2.19.
For the compound `CC(=O)Nc1cccc(-c2c(C)nn3c(C(C)C)c(C(=O)N[C@H]4CCc5ccccc54)cnc23)c1` [Example 298], the EC50 in data set [1] was under 10 µg/mL; in data set [3], 1260 nM. Also, the chromatographic logP in data set [2] came to 3.3.
On to `Cc1nn2c(C3CC3)c(C(=O)N[C@H]3CCc4ccccc43)cnc2c1-c1cccc(C(F)(F)F)c1` [Example 304], for which the figures for the EC50 in data set [1] and in data set [3] were under 1 µg/mL and 20 nM, respectively. Further, in data set [2], the chromatographic logP came out at 4.55.
For `Cc1nn2c(C(C)C)c(C(=O)N[C@H]3CCc4ccccc43)cnc2c1-c1cccc(NS(C)(=O)=O)c1` [Example 308], in that order: under 10 µg/mL, 1580 nM and 3.44.
